The target in test [1] is T1, Brd4 bromodomain 1 (BRD4(1)) (Homo sapiens, UniProt O60885).
T1 construct: N-terminally His-tagged bromodomains (BRD4(1) at 20 nM and BRD4(2) at 100 nM); made in house; host or cells: E. coli BL21(DE3)
The experiment in a line: Inhibition of tetra-acetylated histone H4 binding to Brd4 bromodomain 1 (AlphaScreen). The note with it: His-tagged BRD4(1) at 20 nM, biotinylated tetra-acetylated histone H4 peptide, 30 min incubation. As for the experimental part:
Proteins were cloned and overexpressed with a N-terminal 6×His tag, then purified by nickel affinity followed by size exclusion chromatography. Briefly, E. coli BL21(DE3) cells were transformed with a recombinant expression vector encoding N-terminally Nickel affinity tagged bromodomains from Brd2, Brd3, Brd4. Cell cultures were incubated at 37° C. with shaking to the appropriate density and induced overnight with IPTG. The supernatant of lysed cells was loaded onto Ni-IDA column for purification. Eluted protein was pooled, concentrated and further purified by size exclusion chromatography. Fractions representing monomeric protein were pooled, concentrated, aliquoted, and frozen at −80° C. for use in subsequent experiments.
Binding of tetra-acetylated histone H4 peptide (Millipore) and BET bromodomains was confirmed by Amplified Luminescent Proximity Homogenous Assay (AlphaScreen). N-terminally His-tagged bromodomains (BRD4(1) at 20 nM and BRD4(2) at 100 nM) and biotinylated tetra-acetylated histone H4 (10-25 nM) were incubated in the presence of nickel chelate acceptor beads and streptavidin donor beads (PerkinAlmer, 6760000K) added to a final concentration of 2 μg/ml under green light in a white 96 well microtiter plate (Greiner). For inhibition assays, serially diluted compounds were added to the reaction mixtures in a 0.1% final concentrations of DMSO. Final buffer concentrations were 50 mM HEPES, 100 mM NaCl and 0.1% BSA buffer, pH 7.4 and optimized to 30 min incubation time. Assay plates were read at 570 nm on a Synergy H4 Plate Reader (Biotek). IC50 values were determined from a dose response curve.
In general terms: Alpha assays give light when donor and acceptor beads are brought close together.

The subject of the next test is hIL-6 mRNA. The experiment in a line: Inhibition of hIL-6 mRNA transcription in PMA-differentiated, LPS-stimulated U937 cells. It is filed as cell-based. The following applies: Homo sapiens, U-937; U937 cells differentiated with PMA, 1 h pretreatment, 1 ug/mL LPS, 3 h, real-time PCR; read-out: IL-6 activity. As for the experimental part:
Human leukemic monocyte lymphoma U937 cells (CRL-1593.2) were plated at a density of 3.2×10^4 cells per well in a 96-well plate in 100 μL RPMI-1640 containing 10% FBS and penicillin/streptomycin, and were differentiated into macrophages for 3 days in 60 ng/mL PMA ([…]) at 37° C. in 5% CO2 prior to the addition of compound. The cells were pretreated for 1 h with increasing concentrations of test compound in 0.1% DMSO prior to stimulation with 1 ug/mL lipopolysaccharide from Escherichia coli. Triplicate wells were used for each concentration. The cells were incubated at 37′C, 5% CO2 for 3 h before the cells were harvested. At time of harvest, media was removed and cells were rinsed in 200 μL PBS. Cells were harvested using the mRNA Catcher PLUS kit according to manufacturer's instructions. The eluted mRNA was then used in a one-step quantitative real-time PCR reaction using components of the RNA UltraSense™ One-Step Kit (Life Technologies) together with Applied Biosystems TaqMan® primer-probes for hIL-6 and Cyclophilin. Real-time PCR plates were run on a ViiA™7 real time PCR machine (Applied Biosystems). The data was analyzed, and the Ct values for hIL-6 were normalized to an internal control prior to determining the fold expression of each sample, relative to the control.
On the technique in general: Real-time PCR tracks product formation cycle by cycle.

The next test concerns hIL-17 mRNA. The experiment in a line: Inhibition of hIL-17 mRNA transcription in OKT3-stimulated human peripheral blood mononuclear cells. The note with it: human PBMC, 1 h pretreatment, OKT3 antibody, 6 h, real-time PCR; read-out: IL-17 activity. The format is cell-based. As for the experimental part: Human peripheral blood mononuclear cells were plated (2.0×10^5 cells per well) in a 96-well plate in 45 μL OpTimizer T Cell expansion media (Life Technologies) containing 20 ng/ml IL-2 and penicillin/streptomycin. The cells were treated with increasing concentrations of the test compound or DMSO (0.1%), and were incubated at 37° C., 5% CO2 for 1 h before addition of 10× stock OKT3 antibody at 10 ug/ml in media. Triplicate wells were used for each concentration. Cells were incubated at 37° C., 5% CO2 for 6 h before the cells were harvested. At time of harvest, cells were pelleted by centrifugation at 800 rpm for 5 min. Cells were harvested using the mRNA Catcher PLUS kit according to manufacturer's instructions. The eluted mRNA was then used in a one-step quantitative real-time PCR reaction, using components of the RNA UltraSense™ One-Step Kit (Life Technologies) together with Applied Biosystems TaqMan® primer-probes for hIL-17 and Cyclophilin. Real-time PCR plates were run on a ViiA™7 real time PCR machine (Applied Biosystems). The data was analyzed, and the Ct values for hIL-17 were normalized to an internal control prior to determining the fold induction of each unknown sample, relative to the control.

Here are results for 14 molecules from patent publication US20190055235A1, “SUBSTITUTED BICYCLIC COMPOUNDS AS BROMODOMAIN INHIBITORS” (ZENITH EPIGENETICS LTD., priority 2014, published 2019).

With `CSc1ccc(Cn2c(C)nc3ncc(-c4c(C)noc4C)cc32)cc1` [Example 1, 3,5-Dimethyl-4-(2-methyl-1-(4-(methylthio)benzyl)-1H-imidazo[4,5-b]pyridin-6-yl)isoxazole], the IC50 in test [1] was not above 300 nM; in the test on hIL-6 mRNA it was 300 to 3000 nM; in the test on hIL-17 mRNA, 300 to 3000 nM.

In the case of `COC(=O)c1cccc(Cn2c(C)nc3ncc(-c4c(C)noc4C)cc32)c1` [Example 2, Methyl 3-((6-(3,5-dimethylisoxazol-4-yl)-2-methyl-1H-imidazo[4,5-b]pyridin-1-yl)methyl)benzoate], the IC50 in test [1] is not above 300 nM; in the test with hIL-6 mRNA, 300 to 3000 nM; with hIL-17 mRNA, 300 to 3000 nM.

As for `COC(=O)c1ccc(Cn2c(C)nc3ncc(-c4c(C)noc4C)cc32)cc1` [Example 3, Methyl 4-((6-(3,5-dimethylisoxazol-4-yl)-2-methyl-1H-imidazo[4,5-b]pyridin-1-yl)methyl)benzoate], the IC50 in test [1] was not above 300 nM; with hIL-6 mRNA, 300 to 3000 nM.

As for `CSc1cccc(Cn2c(C)nc3ncc(-c4c(C)noc4C)cc32)c1` [Example 4, 3,5-Dimethyl-4-(2-methyl-1-(3-(methylthio)benzyl)-1H-imidazo[4,5-b]pyridin-6-yl)isoxazole], the IC50 in test [1] is not above 300 nM; with hIL-6 mRNA it was 300 to 3000 nM; with hIL-17 mRNA it was 3000 to 30000 nM.

For the molecule `Cc1noc(C)c1-c1cnc2nc(C)n(Cc3ccc([S+](C)[O-])cc3)c2c1` (centres unmarked) [Example 5, 3,5-Dimethyl-4-(2-methyl-1-(4-(methylsulfinyl)benzyl)-1H-imidazo[4,5-b]pyridin-6-yl)isoxazole], the IC50 in test [1] is not above 300 nM.

In the case of `Cc1noc(C)c1-c1cnc2nc(C)n(Cc3cccc(C(=O)O)c3)c2c1` [Example 6, 3-((6-(3,5-Dimethylisoxazol-4-yl)-2-methyl-1H-imidazo[4,5-b]pyridin-1-yl)methyl)benzoic acid], the IC50 in test [1] fell in the range of 3000 to 30000 nM.

With `Cc1noc(CO)c1-c1cnc2nc(C)n(Cc3ccccc3)c2c1` [Example 7, (4-(1-Benzyl-2-methyl-1H-imidazo[4,5-b]pyridin-6-yl)-3-methylisoxazol-5-yl)methanol], the IC50 in test [1] is not above 300 nM; in the test with hIL-6 mRNA it was 300 to 3000 nM.

On to `Cc1nocc1-c1cnc2nc(C)n(Cc3ccccc3)c2c1` [Example 8, 4-(1-Benzyl-2-methyl-1H-imidazo[4,5-b]pyridin-6-yl)-3-methylisoxazole], for which the IC50 in test [1] is not above 300 nM; in the test on hIL-6 mRNA, 300 to 3000 nM.

Regarding `Cc1noc(C)c1-c1ccc2[nH]nc(CN3CCC(F)(F)CC3)c2c1` [Example 9, 4-(3-((4,4-Difluoropiperidin-1-yl)methyl)-1H-indazol-5-yl)-3,5-dimethylisoxazole], the IC50 was not above 300 nM in test [1], 300 to 3000 nM in the test on hIL-6 mRNA and 300 to 3000 nM in the test on hIL-17 mRNA.

Turning to `Cc1noc(C)c1-c1ccc2[nH]nc(CN3CCCCC3)c2c1` [Example 10, 3,5-Dimethyl-4-[3-(1-piperidylmethyl)-1H-indazol-5-yl]isoxazole], the IC50 in test [1] is not above 300 nM; in the test on hIL-6 mRNA, 300 to 3000 nM; in the test with hIL-17 mRNA it was 300 to 3000 nM.

Turning to `Cc1noc(C)c1-c1ccc2[nH]nc(CN3CCN(C)CC3)c2c1` [Example 11, 3,5-Dimethyl-4-[3-[(4-methylpiperazin-1-yl)methyl]-1H-indazol-5-yl]isoxazole], the figures for the IC50 (in test [1]; in the test on hIL-6 mRNA; in the test with hIL-17 mRNA) were 300 to 3000 nM, 3000 to 30000 nM and 300 to 3000 nM, respectively.

Take `Cc1noc(C)c1-c1ccc2[nH]nc(CN3CCC(C#N)CC3)c2c1` [Example 12, 1-[[5-(3,5-Dimethylisoxazol-4-yl)-1H-indazol-3-yl]methyl]piperidine-4-carbonitrile]: the IC50 is not above 300 nM in test [1] and 300 to 3000 nM in the test on hIL-6 mRNA.

As for `COC1CCN(Cc2n[nH]c3ccc(-c4c(C)noc4C)cc23)CC1` [Example 13, 4-[3-[(4-Methoxy-1-piperidyl)methyl]-1H-indazol-5-yl]-3,5-dimethyl-isoxazole], the IC50 (in test [1]; in the test with hIL-6 mRNA) was 300 to 3000 nM each time.

On to `Cc1noc(C)c1-c1ccc2[nH]nc(CN3CCOCC3)c2c1` [Example 14, 4-[[5-(3,5-Dimethylisoxazol-4-yl)-1H-indazol-3-yl]methyl]morpholine], for which the IC50 in test [1] lay within 300 to 3000 nM; in the test with hIL-6 mRNA, 3000 to 30000 nM.
